Assay results taken from patent US20060111305A1, “Metabolites of certain [1,4]diazepino[6,7,1-ij]quinoline derivatives and methods of preparation and use thereof” (Wyeth, priority 2004, published 2006).

How the values were obtained:
[1] = Incubation of [14C]DCDQ with dog liver microsomes; type: in vitro ADME, beagle dogs
Experimental: [^14C]DCDQ was mixed with non-radiolabeled DCDQ (1:3 or 1:5) in the incubations. Microsomal incubations consisted of [^14C]DCDQ, magnesium chloride (10 mM) and liver microsomes incubated in 0.5 mL of 0.1 M potassium phosphate buffer, pH 7.4. [^14C]DCDQ (20 μL) in water was added to the incubation tubes containing buffer, magnesium chloride solution and microsomes. After mixing, the tubes were pre-incubated for 2 minutes in a shaking water bath at 37° C. The reactions were initiated by the addition of UDPGA or the NADPH regenerating system. UDPGA was added to incubations as a 50 μL aliquot of a 20 mM solution in water, to give a final concentration of 2 mM. An NADPH regenerating system (30 μL) was added to incubations to evaluate CYP450-mediated metabolism. The NADPH regenerating system consisted of glucose-6-phosphate (2 mg/mL), glucose-6-phosphate dehydrogenase (0.8 units/mL) and NADP^+ (2 mg/mL). Control incubations were conducted under the same conditions, but without the NADPH generating system, UDPGA or microsomes. All incubations were performed in duplicate. Incubations were stopped by the addition of 0.5 mL ice-cold methanol. Samples were vortex-mixed. Denatured proteins were separated by centrifugation at 4300 rpm and 4° C. for 10 minutes (Model T21 super centrifuge, Sorvall). The protein pellets were extracted with 0.5 mL of methanol. The supernatant was combined for each sample, mixed and evaporated to a volume of about 0.3 mL under a nitrogen stream in a Zymark TurboVap LV evaporator (Caliper Life Science, Hopkinton, Mass.). The concentrated sample was centrifuged and aliquots were radioassayed and analyzed by HPLC. This method recovered an average of 92.1% of the radioactivity from the reaction mixture.
To evaluate species differences in cytochrome P450- and UGT-mediated metabolism, [^14C]DCDQ was incubated for 20 minutes with 0.5 mg/mL liver microsomal proteins from mice, rats, dogs or humans in the presence of the NADPH regenerating system or UDPGA. The assay conditions were the same as described above, and DCDQ concentrations were 12 μM and 56 μM for cytochrome P450- and UGT-mediated metabolism, respectively.
A Waters model 2690 HPLC system (Waters Corp., Milford, Mass.) with a built-in autosampler was used for analysis. Separations were accomplished on a Phenomenex Luna C18(2) column (2×150 mm, 5 μm) (Phenomenex, Torrance, Calif.) coupled with a filter (4×2 mm) cartridge. A variable wavelength UV detector set to monitor 250 nm and Flo-One β Model A525 radioactivity flow detector (Perkin Elmer) with a 250 μL LQTR flow cell were used for data acquisition. The flow rate of Ultima Flow M scintillation fluid was 1 mL/min, providing a mixing ratio of scintillation cocktail to mobile phase of 5:1. […]

[2] = Metabolites of DCDQ generated by liver microsomes and hepatocytes, LC/MS characterization (Table 6); type: in vitro ADME; conditions: MM mouse, RM rat, DM dog, HM human liver microsomes; HH human hepatocytes
From the text: An Agilent Model 1100 HPLC system (Agilent Technologies, Palo Alto, Calif.) including an autosampler and diode array UV detector was used for LC/MS analysis. The UV detector was set to monitor 200 to 400 nm. For selected LC/MS analysis, radiochromatograms were acquired using a β-Ram model 3 radioactivity flow detector (IN/US Systems Inc., Tampa, Fla.) equipped with a solid scintillant flow cell. Separations were accomplished on a Phenomenex Luna C18(2) column (2×150 mm, 5 μm) under the same conditions as described above.
(§1) The mass spectrometer used for metabolite characterization was a Micromass Q-TOF-2 quadrupole time-of-flight hybrid mass spectrometer (Nature Corp.). The mass spectrometer was equipped with an electrospray ionization (ESI) interface and operated in the positive ionization mode. Collision energy settings of 5 and 30 eV were used for full MS and MS/MS scans, respectively. Settings for the mass spectrometer are listed below.
Mass spectra were obtained by LC/MS and LC/MS/MS analysis for DCDQ and its metabolites.

[3] = Metabolites of DCDQ identified in rats by LC/MS analysis (Table 18); type: in vivo, Sprague-Dawley rats; conditions: P = plasma, U = urine, B = brain, F = feces
Experimental: An Agilent Model 1100 HPLC system (Agilent Technologies, Wilmington, Del.) including an autosampler and diode array UV detector was used for LC/MS analysis of plasma and urine samples. The UV detector was set to monitor 200 to 400 nm. For selected LC/MS analyses, radiochromatograms were acquired using a β-Ram model 3 radioactivity flow detector (IN/US Systems Inc., Tampa, Fla.) equipped with a solid scintillant flow cell. Fecal samples were also analyzed using a Waters Alliance model 2690 HPLC system. It was equipped with a built-in autosampler and a model 996 diode array UV detector set to 210-350 nm. The HPLC flow was split between a Radiomatic model 150TR flow scintillation analyzer (Perkin Elmer) and the mass spectrometer. Other HPLC conditions were the same as condition B described above.
as §1, with “characterization for plasma and urine” for “characterization”, “(Waters).” for “(Nature Corp.).”
A Micromass Quattro Micro mass spectrometer (Waters) was also used to analyze the fecal samples. It was equipped with an electrospray ionization (ESI) interface and operated in the positive ionization mode. Settings for the mass spectrometer are listed below.
LC/MS/MS in the selected reaction-monitoring (SRM) mode (LC/SRM) was conducted with the triple quadruple mass spectrometer to monitor DCDQ and its metabolites in fecal samples. The transitions monitored are listed below.

[4] = NADPH regenerating system, 12 μM DCDQ, 20 min

SMILES | metabolite detected in microsomal incubation ([1]; UDPGA, 56 μM DCDQ) | Source [2] | Matrix [3] | metabolite detected in microsomal incubation [1, 4]
O=C(O)[C@H]1O[C@@H](OC(=O)N2CCN3C[C@@H]4CCC[C@@H]4c4cccc(c43)C2)[C@H](O)[C@@H](O)[C@@H]1O [Metabolite M6, carbamoyl glucuronide of DCDQ] | detected | DM, HM, HH | – | –
c1cc2c3c(c1)[C@H]1CCC[C@H]1CN3CCNC2 [DCDQ, (9aR,12aS)-4,5,6,7,9,9a,10,11,12,12a-decahydro-cyclopenta[c][1,4]diazepine[6,7,1-ij]quinoline, reference compound] | – | MM, RM, DM, HM, HH | P, U, F | –
[O-][N+]12CCN=Cc3cccc(c31)[C@H]1CCC[C@H]1C2 (stereo partly shown) [Metabolite M5, DCDQ imine N-oxide] | – | DM, HM, HH | – | detected

The next lines start with the values.

metabolite detected in microsomal incubation ([1]; UDPGA, 56 μM DCDQ) | Source [2] | Matrix [3] | metabolite detected in microsomal incubation [1, 4] | SMILES
– | HM, HH | P, U, B | not detected | OC1CN2C[C@@H]3CCC[C@@H]3c3cccc(c32)CN1 (stereo partly shown) [Metabolite M1, hydroxy DCDQ]
– | – | P, U, B | – | O=C1CC[C@@H]2c3cccc4c3N(CCNC4)C[C@H]12 [Metabolite M7, 17-keto DCDQ]
– | MM, RM, DM, HM, HH | P, U | observed | OC1[C@@H]2CCC[C@@H]2c2cccc3c2N1CCNC3 (stereo partly shown) [Metabolite M2, hydroxy DCDQ]
